Here are results for one compound from patent US5424073A (Georgetown University, priority 1993, dated 1995).

In brackets after ≈: the same amount, converted by molar mass.

Series [1] can be described thus: Stability studies of liposomal and free taxol. Format: physicochemical. The conditions noted are these: free taxol 0.6 mg/ml in saline.
In series [2] the test system is Male CD2 F1 mice. The experiment in a line: Toxicity evaluation of free and liposomal taxol in normal mice. It is filed as in vivo, mouse. To be noted: 25 mg/kg i.v., repeated day 5 and 9. The procedure:
Male CD2 F1 mice weighing 22-25 gm were used in this study. […] Taxol liposomes were prepared using cardiolipin, phosphatidyl choline, and cholesterol. […] The same doses were repeated on mice at day 5 and 9.

Series [3] relates to HL-60 promyelocytic leukemia cells. The experiment in a line: Growth inhibition (cytotoxicity) in HL-60 leukemia cells. Format: cell-based. The conditions noted are these: Homo sapiens; HL-60, 72 hours, 37° C., trypan blue; FIG. 3. The procedure:
HL-60 promyelocytic leukemia cells were grown in tissue culture in RPM1-1640 medium supplemented with 10% fetal bovine serum. All cultures were maintained in plastic tissue culture flasks and kept in an incubator at 37° C. in humidified air containing 5% CO2.
For these experiments, 1×10^5 cells in exponential growth phase were plated into 25 cm^2 flasks. […] Cells were counted in a hemocytometer and viability was determined by trypan blue exclusion. The cell survival was compared to the control cells and IC50 (inhibitory concentration for 50% of the cells) values for each drug was determined.

The test system of series [4] is HL-60 cells. Format: cell-based, human. To be noted: 10 μg/ml, FIG. 4. The procedure: Briefly, exponentially growing cells were incubated in 100 mm petri dishes with drug containing medium at 37° C. […] The cell pellets were suspended in 0.5 ml of 2% SDS solution and then sonicated for 5 minutes in a cup-horn sonicator. The cell homogenate was extracted with 2 ml of methanol.

Series [5] relates to HL-60/VCR cells. Nature of the series: Cytotoxicity in multidrug resistant HL-60/VCR cells. To be noted: Homo sapiens, HL60/VCR, 72 hours, FIG. 5. Format: cell-based. How it is done: The HL-60 VCR cells were grown in media at 37° C. with 5% CO2.
After 72 hours of incubation, cells in each flask were counted by hemocytometer and viability was determined by trypan blue exclusion. Percent survival of treated cells was determined relative to untreated control. Cytotoxic activity was expressed as IC50 which was defined as the concentration of drug resulting 50% survival of the cells compared to control.

Series [6] relates to HL-60/VCR cells. The experiment in a line: Intracellular taxol accumulation in HL-60/VCR cells. Format: cell-based, human. The conditions noted are these: 4 hours. How it is done:
The cells were suspended in cold PBS and counted, and centrifuged again. The cell pellets were suspended in 0.5 ml of 2% SDS solution and then sonicated for 5 minutes in a cup-horn sonicator (Heat Systems, Farmingdate, N.Y.). Resulting cell homogenate was extracted with 4 ml of methanol, vortexed for 1 minute and centrifuged for 20 minutes at 3000 rpm. The samples were read by using HPLC. The concentration of drug in […] was calculated using a standard calibration curve for drug spiked cells and were then treated similarly.

Series [7] has as its system B16 melanoma. To be noted: i.p. implanted; cited from earlier work.
Series [8] deals with L1210 leukemia. To be noted: in vivo; cited from earlier work.
The subject of series [9] is P388 leukemia. The conditions noted are these: in vivo; cited from earlier work.
Series [10] has as its system human MX-1 mammary tumor xenograft. The conditions noted are these: in vivo; cited from earlier work.
Series [11] deals with advanced ovarian tumors. The conditions noted are these: women with advanced ovarian tumors; cited from earlier work.
Series [12] has as its system lymphoma, ovarian and breast cancers. To be noted: cited from earlier work.
Series [13] has as its system metastatic breast cancer. To be noted: in vivo; cited from earlier work.
In series [14] the test system is tubulin. To be noted: cited from earlier work.
Series [15] deals with cell replication. To be noted: in vitro; cited from earlier work.
The conditions of series [16]: cited from earlier work.
For series [17] the following is noted: cited from earlier work. The source holds these as a separate data set.

By IC50 is commonly meant the concentration that gives 50% inhibition. Read a low IC50 as inhibition by little substance. In the case of `CC(=O)O[C@H]1C(=O)[C@@]2(C)[C@H]([C@H](OC(=O)c3ccccc3)[C@]3(O)C[C@H](OC(=O)[C@H](O)[C@@H](NC(=O)c4ccccc4)c4ccccc4)C(C)=C1C3(C)C)[C@]1(OC(C)=O)CO[C@@H]1C[C@@H]2O` (relative stereo) [Taxol, (2aR(2aα,4β,4aβ,6β,9α(αR*,βS*) ,11α, 12α,12aα,12bα))-β-(β-(benzoylamino)-α-hydroxybenzenepropanoic acid 6,12b-bis(acetyloxy)-12-(benzoyloxy)-2a,3,4,4a,5,6,9,10,11,12,12a,12b-dodecahydro-4,11-dihydroxy-4a, 8,13,13-tetramethyl-5-oxo-7,11-methano-14-cyclodeca(3,4)benz(1,2-6)oxet-9-yl ester], the “degradation time in saline” value in series [1] is not above 3 h. For the same compound, the “sclerosis of the vein” value in [2] is reported as “sclerosis of the vein”. Also, the “mortality / toxicity by day 12” value in [2] (ten mice per group, FIG. 2) is recorded as “three mice in the free taxol group died because of toxicity”. For the same compound, half-maximal inhibition in series [3] (IC50) was put at 0.0025 µg/mL (≈ 0.00293 µM). For the same compound, in series [4] (2 and 4 hours, HL-60, relative to 1 hour), the “cellular concentration of taxol at 2 and 4 hours” value was “same taxol concentration”. Moreover, in [4] (1 hour, HL-60), the “cellular concentration of taxol at 1 hour” value is 5.18 μg/10^7 cells. This compound also displayed an IC50 in series [5] of 2.43 µg/mL (≈ 2.85 µM). The “decrease in cellular uptake versus liposomal taxol” value in [6] was “threefold decrease in cellular uptake”. Further, the “antineoplastic activity against B16 melanoma” value in series [7] is on record as “significant antineoplastic activity”. In addition, the “antineoplastic activity against L1210 leukemia” value in series [8] is “significant antineoplastic activity”. Further, the “antineoplastic activity against P388 leukemia” value in [9] is on record as “significant antineoplastic activity”. Also, in series [10], the “antineoplastic activity against MX-1 xenograft” value was “significant antineoplastic activity”. Besides, the “tumor shrinkage, share of women” value in series [11] is 30 to 40%. Further, the “activity in clinical trials” value in [12] is on record as “sufficient activity”. Also, the “treatment of metastatic breast cancer” value in series [13] is listed as “considerable promise”. For the same compound, the “effect on tubulin polymerization” value in series [14] is reported as “markedly enhances all aspects of tubulin polymerization”. In addition, in series [15], the “inhibition of cell replication” value was “potent inhibitor of cell replication in vitro”. Also, the “toxicities despite pretreatment and prolonged infusion” value in series [16] (antihistamine and corticosteroids, infusion six to twenty four hours) was “serious toxicities which are often fatal”. Moreover, the cardiac toxicity entry in series [16] (human, in vivo) was “treatment limiting”. Further, in [17] (diluted in saline solution), the “degradation time once diluted in saline” value is not above 24 h and the precipitation from dilution result was “the drug precipitates from dilution”. Further, the solubility in water entry in series [17] (water) is on record as “limited solubility in water”.
